Experimental data reported in US11634479B2, “Immunoassay for collagen type VI” (Nordic Bioscience A/S, priority 2015, dated 2023).

How the values were obtained:
[1] = BALLETS phase III clinical study: adverse event profile in subgroups of baseline endotrophin; assay type: in vivo, subjects with type 2 diabetes on stable insulin therapy
Description: Testing Strategies) study was a phase III, randomized, double-blind, parallel-group, placebo and active comparator-controlled clinical study to determine the efficacy and safety of six months' treatment of balaglitazone or pioglitazone in subjects with type 2 diabetes on stable insulin therapy. The baseline demographics, CONSORT diagram as well as efficacy and safety data have previously been published (Henriksen, 2011). In the current study we used the per protocol population of the BALLETS study, which consisted of 299 subjects spread evenly over four groups (placebo, two doses of balaglitazone, and one dose of piogliatazone) as previously described (Henriksen, 2011), all with baseline and up to six follow-up parameters related to blood sugar control and Pro-C6 determinations under therapy.
The analysis included subjects from the per protocol population having a baseline measurement of serum Pro-C6. Subjects were grouped into one of three tertiles based on their baseline Pro-C6 value. Tertile 1 included subjects with baseline serum Pro-C6 of 6.2 ng/mL or below; tertile 2 had baseline serum Pro-C6 of 6.3 ng/mL to 7.7 ng/mL, and tertile 3 had baseline serum Pro-C6 of 7.8 ng/mL or above. Baseline characteristics between the three subgroups were compared by analysis of variance (ANOVA), and comparison of the proportion of genders in each tertile was compared by Fisher's exact test.
Lower leg edema, when measured as volume increase due to water displacement, was correlated with baseline serum endotrophin tertiles. Glitazone therapy led to increased lower leg volume in the lower and middle tertile, while there were no differences between treatment and placebo groups in the upper tertile (FIG. 12A-12C). There were no significant differences in the occurrence of AEs or SAEs in the three different treatment groups when stratified according to endotrophin levels. The difference between the SAEs in Table 10 and the lower leg oedema reported in FIGS. 12A-12C is a function of the lower leg volume being a quantitative measure and the reporting of oedemas being a patient reported output (FIGS. 10A-10C).

[2] = test system: around 10 kD bands in human serum and amniotic fluid; test: Western blot of human serum and amniotic fluid; assay type: binding; settings: FIG. 2B
Procedure: Native reactivity of the chosen antibody was assessed using human serum pool and human amniotic fluid pool.

[3] = Tertile 1 baseline endotrophin, Balaglitazone 10 mg, n = 27
[4] = Tertile 1 baseline endotrophin, Balaglitazone 20 mg, n = 22
[5] = Tertile 2 baseline endotrophin, Balaglitazone 10 mg, n = 21
[6] = Tertile 2 baseline endotrophin, Balaglitazone 20 mg, n = 21
[7] = Tertile 3 baseline endotrophin, Balaglitazone 10 mg, n = 25
[8] = Tertile 3 baseline endotrophin, Balaglitazone 20 mg, n = 25
[9] = Tertile 1 baseline endotrophin, Pioglitazone 45 mg, n = 24
[10] = Tertile 2 baseline endotrophin, Pioglitazone 45 mg, n = 29
[11] = Tertile 3 baseline endotrophin, Pioglitazone 45 mg, n = 31

Chain of around 10 kD bands in human serum and amniotic fluid (P12111 3112-3177 limits assumed): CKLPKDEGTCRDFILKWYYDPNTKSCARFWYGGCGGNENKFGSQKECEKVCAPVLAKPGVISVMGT

## Cn1c(COc2ccc(CC3SC(=O)NC3=O)cc2)nc2ccccc2c1=O (stereo not drawn) [Balaglitazone, balaglitazone]
[1]; [3]
  All AEs, E: 38
  All AEs, N (%): 20 (74%) N (%)
  Serious AEs, E: 1
  Serious AEs, N (%): 1 (4%) N (%)
  Severe AEs: Cardiac ischaemia, E: 0
  Severe AEs: Cardiac ischaemia, N (%): 0 (0%) N (%)
  Severe AEs: Heart failure, E: 0
  Severe AEs: Heart failure, N (%): 0 (0%) N (%)
  Severe AEs: Peripheral oedema, E: 2
  Severe AEs: Peripheral oedema, N (%): 2 (7%) N (%)
  Total severe AEs, E: 2
  Total severe AEs, N (%): 2 (7%) N (%)
[1]; [4]
  All AEs, E: 33
  All AEs, N (%): 17 (77%) N (%)
  Serious AEs, E: 1
  Serious AEs, N (%): 1 (5%) N (%)
  Severe AEs: Cardiac ischaemia, E: 2
  Severe AEs: Cardiac ischaemia, N (%): 2 (9%) N (%)
  Severe AEs: Heart failure, E: 0
  Severe AEs: Heart failure, N (%): 0 (0%) N (%)
  Severe AEs: Peripheral oedema, E: 2
  Severe AEs: Peripheral oedema, N (%): 2 (9%) N (%)
  Total severe AEs, E: 4
  Total severe AEs, N (%): 4 (18%) N (%)
[1]; [5]
  All AEs, E: 35
  All AEs, N (%): 17 (81%) N (%)
  Serious AEs, E: 1
  Serious AEs, N (%): 1 (5%) N (%)
  Severe AEs: Cardiac ischaemia, E: 1
  Severe AEs: Cardiac ischaemia, N (%): 1 (5%) N (%)
  Severe AEs: Heart failure, E: 0
  Severe AEs: Heart failure, N (%): 0 (0%) N (%)
  Severe AEs: Peripheral oedema, E: 3
  Severe AEs: Peripheral oedema, N (%): 3 (14%) N (%)
  Total severe AEs, E: 4
  Total severe AEs, N (%): 4 (19%) N (%)
[1]; [6]
  All AEs, E: 36
  All AEs, N (%): 15 (71%) N (%)
  Serious AEs, E: 0
  Serious AEs, N (%): 0 (0%) N (%)
  Severe AEs: Cardiac ischaemia, E: 0
  Severe AEs: Cardiac ischaemia, N (%): 0 (0%) N (%)
  Severe AEs: Heart failure, E: 0
  Severe AEs: Heart failure, N (%): 0 (0%) N (%)
  Severe AEs: Peripheral oedema, E: 2
  Severe AEs: Peripheral oedema, N (%): 2 (10%) N (%)
  Total severe AEs, E: 2
  Total severe AEs, N (%): 2 (10%) N (%)
[1]; [7]
  All AEs, E: 55
  All AEs, N (%): 20 (60%) N (%)
  Serious AEs, E: 1
  Serious AEs, N (%): 1 (4%) N (%)
  Severe AEs: Cardiac ischaemia, E: 0
  Severe AEs: Cardiac ischaemia, N (%): 0 (0%) N (%)
  Severe AEs: Heart failure, E: 0
  Severe AEs: Heart failure, N (%): 0 (0%) N (%)
  Severe AEs: Peripheral oedema, E: 1
  Severe AEs: Peripheral oedema, N (%): 1 (8%) N (%)
  Total severe AEs, E: 1
  Total severe AEs, N (%): 1 (8%) N (%)
[1]; [8]
  All AEs, E: 43
  All AEs, N (%): 20 (60%) N (%)
  Serious AEs, E: 6
  Serious AEs, N (%): 6 (24%) N (%)
  Severe AEs: Cardiac ischaemia, E: 1
  Severe AEs: Cardiac ischaemia, N (%): 1 (4%) N (%)
  Severe AEs: Heart failure, E: 0
  Severe AEs: Heart failure, N (%): 0 (0%) N (%)
  Severe AEs: Peripheral oedema, E: 1
  Severe AEs: Peripheral oedema, N (%): 1 (4%) N (%)
  Total severe AEs, E: 2
  Total severe AEs, N (%): 2 (8%) N (%)

## CCc1ccc(CCOc2ccc(CC3SC(=O)NC3=O)cc2)nc1 (stereo not drawn) [Pioglitazone, pioglitazone]
[1]; [9]
  All AEs, E: 45
  All AEs, N (%): 19 (79%) N (%)
  Serious AEs, E: 1
  Serious AEs, N (%): 1 (4%) N (%)
  Severe AEs: Cardiac ischaemia, E: 0
  Severe AEs: Cardiac ischaemia, N (%): 0 (0%) N (%)
  Severe AEs: Heart failure, E: 0
  Severe AEs: Heart failure, N (%): 0 (0%) N (%)
  Severe AEs: Peripheral oedema, E: 5
  Severe AEs: Peripheral oedema, N (%): 5 (21%) N (%)
  Total severe AEs, E: 5
  Total severe AEs, N (%): 5 (21%) N (%)
[1]; [10]
  All AEs, N (%): 17 (59%)^ N (%)
  Serious AEs, E: 3
  Serious AEs, N (%): 2 (6%) N (%)
  Severe AEs: Cardiac ischaemia, E: 1
  Severe AEs: Cardiac ischaemia, N (%): 1 (3%) N (%)
  Severe AEs: Heart failure, E: 0
  Severe AEs: Heart failure, N (%): 0 (0%) N (%)
  Severe AEs: Peripheral oedema, E: 5
  Severe AEs: Peripheral oedema, N (%): 5 (17%) N (%)
  Total severe AEs, E: 6
  Total severe AEs, N (%): 5 (17%) N (%)
[1]; [11]
  All AEs, N (%): 25 (81%)^ N (%)
  Serious AEs, E: 6
  Serious AEs, N (%): 4 (13%) N (%)
  Severe AEs: Cardiac ischaemia, E: 4
  Severe AEs: Cardiac ischaemia, N (%): 3 (10%) N (%)
  Severe AEs: Heart failure, E: 1
  Severe AEs: Heart failure, N (%): 1 (3%) N (%)
  Severe AEs: Peripheral oedema, E: 2
  Severe AEs: Peripheral oedema, N (%): 2 (6%) N (%)
  Total severe AEs, E: 7
  Total severe AEs, N (%): 6 (19%) N (%)

B1: 10A3: mouse IgG1/kappa monoclonal antibody against the last 10 amino acids of C-terminal COL6A3 (…); heavy chain SEQ ID NO:5, light chain SEQ ID NO:9 (antibody)
heavy: EVQLQQSGPVMVKPGTSVKTSCKASGYTFTDFNMNWVKQSHGKSLEWIGAINPHNGATSYNQKFSGKATLTVDKSSSTAYMELNSLTSDDSAVYYCARWGNGKNSWGQGTTLTVSSAKTTPPSVYPLAPGSAAQTNSMVTLGCLVKGYFPEPVTVTWNSGSLSSGVHTFPAVLQSDLYTLSSSVTVPSSTWPSETVTCNVAHPASSTKVDKKIVPRDCGCKPCICTVPEVSSVFIFPPKPKDVLTITLTPKVTCVVVDISKDDPEVQFSWFVDDVEVHTAQTQPREEQFNSTFRSVSELPIMHQDWLNGKEFKCRVNSAAFPAPIEKTISKTKGRPKAPQVYTIPPPKEQMAKDKVSLTCMITDFFPEDITVEWQWNGQPAENYKNTQPIMDTDGSYFVYSKLNVQKSNWEAGNTFTCSVLHEGLHNHHTEKSLSHSPGK
light: DVVMTQTPLSLPVNLGDQASISCRSSQRIVHSNGITFLEWYLQKPGQSPKLLIYRVSNRFSGVPDRFSGSGSGTDFTLKISRVEAEDLGLYYCFQGSHVPLTFGAGTRLELKRADAAPTVSIFPPSSEQLTSGGASVVCFLNNFYPKDINVKWKIDGSERQNGVLNSWTDQDSKDSTYSMSSTLTLTKDEYERHNSYTCEATHKTSTSPIVKSFNRNEC
modifications: Heavy chain sequence of mouse IgG1 isotype of monoclonal antibody 10A3; Light chain sequence of mouse Kappa isotype of monoclonal antibody 10A3
[2]
  western blot signal in the presence of the standard peptide: completely blocked
[2]; human serum and amniotic fluid
  bands recognized in western blot: around 10 kD
